# Data from ChEMBL document CHEMBL1123618, “alpha,alpha-Difluoro-beta-aminodeoxystatine-containing renin inhibitory peptides” (J Med Chem, 1987).
# Target: T1, Renin (Homo sapiens, UniProt P00797)
# T1 sequence (P00797 whole entry): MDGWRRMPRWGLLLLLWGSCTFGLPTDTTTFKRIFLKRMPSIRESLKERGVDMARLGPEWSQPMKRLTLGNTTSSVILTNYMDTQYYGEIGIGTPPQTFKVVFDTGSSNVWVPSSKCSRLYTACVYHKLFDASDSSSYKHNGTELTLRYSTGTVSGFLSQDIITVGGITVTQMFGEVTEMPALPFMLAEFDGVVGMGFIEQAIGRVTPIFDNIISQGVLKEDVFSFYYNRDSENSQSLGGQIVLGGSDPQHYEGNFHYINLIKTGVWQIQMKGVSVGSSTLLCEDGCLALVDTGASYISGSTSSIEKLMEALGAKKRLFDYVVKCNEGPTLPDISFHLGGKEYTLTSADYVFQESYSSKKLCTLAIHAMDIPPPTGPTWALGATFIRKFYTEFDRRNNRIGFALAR
# Test: Inhibitory activity against human plasma renin.
# Type: cell-free
row,Compound,IC50 [nM]
1,CC[C@H](C)[C@H](NC(=O)C[C@@H](O)[C@H](CC(C)C)NC(=O)[C@H](Cc1c[nH]cn1)NC(=O)[C@H](Cc1ccccc1)NC(=O)OC(C)(C)C)C(=O)NCc1ccccn1,330
2,CC[C@H](C)[C@H](NC(=O)C[C@H](N)[C@H](CC(C)C)NC(=O)[C@H](Cc1c[nH]cn1)NC(=O)[C@H](Cc1ccccc1)NC(=O)OC(C)(C)C)C(=O)NCc1ccccn1,15
3,CC[C@H](C)[C@H](NC(=O)C(F)(F)[C@H](N)[C@H](CC(C)C)NC(=O)[C@H](Cc1cnc[nH]1)NC(=O)[C@H](Cc1ccccc1)NC(=O)OC(C)(C)C)C(=O)NCc1ccccn1,340

# Continued by falling IC50, values first:
row,IC50 [nM],Compound
1,2800,CC[C@H](C)[C@H](NC(=O)C(F)(F)[C@@H](N)[C@H](CC(C)C)NC(=O)[C@H](Cc1cnc[nH]1)NC(=O)[C@H](Cc1ccccc1)NC(=O)OC(C)(C)C)C(=O)NCc1ccccn1
2,480,CC[C@H](C)[C@H](NC(=O)C[C@@H](N)[C@H](CC(C)C)NC(=O)[C@H](Cc1c[nH]cn1)NC(=O)[C@H](Cc1ccccc1)NC(=O)OC(C)(C)C)C(=O)NCc1ccccn1
